Ends that are not written are not given here. * marks the point of attachment. Fmoc = O=C(OCC1c2ccccc2-c2ccccc21)*

Here are results for one substance from patent US20240358889A1, “PEPTIDE-CONTAINING HYBRID HYDROGEL FOR BONE REGENERATION” (Ramot at Tel-Aviv University Ltd., priority 2022, published 2024).

A short description of the data set: Rheological studies of the hydrogel (strain, frequency, shear rate, time sweep, step strain). Particulars: fixed strain 0.1%, frequency 5 Hz, 37° C. It is filed as physicochemical.

For the substance Fmoc-Phe-Phe [FmocFF], the “storage modulus G′” value is given as 4,708 Pa.
